Experimental data taken from US4965280A, “Antifungal carbinols” (E. I. Du Pont de Nemours and Company, priority 1989, dated 1990).
≈ marks a conversion by molar mass, not a printed value. Structures can show the parent of a compound that is named as a salt. Where two headings read alike, the source gives them in different places.

Tests used:
[1] = system: Aspergillus fumigatus ATCC 28214; experiment: In vitro antifungal MIC, microtiter broth dilution; conditions: for MIC values, A. fumigatus: 30°, 24 hours; for MIC: Aspergillus fumigatus, ATCC28214, 24 h
[2] = system: Candida albicans ATCC 11651; experiment: In vitro antifungal MIC, microtiter broth dilution; conditions: for MIC values, C. albicans: 30°, 24 hours; for MIC: Candida albicans, ATCC11651, 24 h
[3] = system: Candida albicans ATCC 11651; experiment: In vivo systemic Candida infection in mice, primary assay; parameters: species or system Candida albicans; CF-1 female mice; conditions: for responders at 150 mg/kg / responders at 1 mg/kg/day: Candida albicans, read-out: % Survival
Text: The […] activity of test compounds is based on the percent (%) survival of infected animals receiving test or standard agent compared to that in an infected untreated group (Table 6). The in vivo assays are chronic systemic infections lethal to mice within 7 days post infection, [J. Barnes, et al. Lab Investigation, 49 460-467 (1963), and T. Rogers and E. Balish, Infection and Immunity, 14 33-38 (1976)].
Candida albicans ATCC 11651, from a frozen stock culture (10^9 organisms/ml) maintained at -70°, is diluted in saline to 1×10^7 organisms/ml and 0.2 ml inoculated intravenously (caudal vein) into 20.0 gm CF-1 female mice (Charles River).
Test compounds are routinely solubilized in 0.25% (w/v) methylcellulose (Methocel®) but for those compounds difficult to solubilize 10% (w/v) Emulophor® (EL620 GAF Corp.) is used. The standard antifungal agents, amphotericin B (Fungizone®) in water and ketoconazole (Nizoral®) in Methocel®, are administered at 1.0 mg/kg/day and 150 mg/kg/day, respectively.
In a primary assay, mice (10 per group) are infected with C. albicans, and receive test compounds at 50 or 150 mg/kg/day via the subcutaneous route. Animals are dosed with the test compound at 1 and 6 hour post-infection and then once daily for the next three days. Survival of mice in each group is recorded for 21 days.
Compounds which protect ≥70% of the infected animals for 14 days at a dose 150 mg/kg/day or less are viewed as active.

Plasmorpara viticola = experiment: Example I grape downy mildew; assay type: in vivo; conditions: read-out: disease control rating, Ex. I
Protocol: (§1) The test compounds were dissolved in acetone in an amount equal to 6% of the final volume and then suspended at a concentration of 100 or 20 ppm in purified water containing 250 ppm of the surfactant TREM 014 (polyhydric alcohol esters). This suspension was sprayed to the point of run-off on grape seedlings.

Rhizoctonia solani = experiment: Example F rice sheath blight; assay type: in vivo; conditions: Rhizoctonia solani, 144 h, read-out: disease control rating, Ex. F
Protocol: as §1, with “rice” for “grape”

Puccinia recondita = experiment: Example G wheat leaf rust; assay type: in vivo; conditions: read-out: disease control rating, Ex. G
Phytophthora infestans = experiment: whole plant or invertebrate; assay type: in vivo; conditions: Phytophthora infestans, in Solanum lycopersicum, read-out: disease control rating, Ex. H, 100 PPM
Botrytis cinerea = experiment: Example C bean grey mold; assay type: in vivo; conditions: Botrytis cinerea, 24 h, read-out: disease control rating, Ex. C
Protocol: as §1, with “broad bean” for “grape”

[4] = system: Cercosporidium personatum; experiment: Example B Peanut Late Leafspot; assay type: in vivo; conditions: Nothopassalora personata, read-out: disease control rating, Ex. B
Protocol: as §1, with “peanut” for “grape”

Pyricularia oryzae = experiment: whole plant or invertebrate; assay type: in vivo; conditions: Pyricularia oryzae, 120 h, read-out: disease control rating, Ex. E, 100 PPM
[5] = system: Erysiphe graminis f. sp. tritici; experiment: Example D wheat powdery mildew; assay type: in vivo; conditions: Blumeria graminis, 144 h; 20 PPM; read-out: disease control rating, Ex. D
Protocol: as §1, with “wheat” for “grape”

Venturia inaequalis = experiment: Example A apple scab; assay type: in vivo; conditions: 20 PPM, read-out: disease control rating, Ex. A
Protocol: as §1, with “apple seedings.” for “grape seedlings.”

[6] = ATCC11651, 168 h, 150 mg/kg per day, day 7
[7] = ATCC11651, 336 h, 150 mg/kg per day, day 14
[8] = ATCC11651, 504 h, 150 mg/kg per day, day 21
[9] = read-out: MIC values, A. fumigatus, 30°, 24 hours
[10] = read-out: MIC values, C. albicans, 30°, 24 hours
[11] = read-out: MIC values, A. fumigatus
[12] = read-out: MIC values, C. albicans

C=C(c1ccc(F)cc1)C(O)(Cn1cncn1)c1ccc(F)cc1 (single isomer, unassigned) [1277 HCl salt]
MIC values, A. fumigatus [1]: 3.2 µg/mL | MIC values, C. albicans [2]: 0.03 µg/mL

OC(Cn1cncn1)(c1ccc(F)cc1)C1(c2ccc(F)cc2)CO1 (single isomer, unassigned) [Example 1487, 2,3-bis(4-fluorophenyl)-1-(1H-1,2,4-triazol-1-yl)-3,4-epoxy-2-butanol]
responders at 150 mg/kg [3, 6]: 100% | responders at 150 mg/kg [3, 7]: 100% | responders at 150 mg/kg [3, 8]: 70% | MIC [1, 9]: 6.3 µg/mL (≈ 18.3 µM) | MIC [2, 10]: 0.4 µg/mL (≈ 1.17 µM)

C=C(c1ccc(F)cc1)C(O)(Cn1cncn1)c1ccc(F)cc1 (stereo not drawn) [1 HCl salt]
MIC values, A. fumigatus [1]: 12.5 µg/mL | MIC values, C. albicans [2]: 0.05 µg/mL

Nc1nc(=O)[nH]cc1F [5-Fluorocytosine, reference compound]
MIC [1, 9]: 5.7 ± 4 µg/mL (≈ 44.2 µM) | MIC [2, 10]: 0.14 ± 0.1 µg/mL (≈ 1.08 µM)

C=C(c1ccc(Cl)cc1)C(O)(Cn1cncn1)c1ccc(Cl)cc1Cl (stereo not drawn) [26 HCl salt]
MIC values, A. fumigatus [1]: 0.4 µg/mL | MIC values, C. albicans [2]: 0.03 µg/mL

C=C(c1ccccc1Cl)C(O)(Cn1cncn1)c1ccc(Cl)cc1 (stereo not drawn) [34 HCl salt]
MIC values, A. fumigatus [1]: 1.6 µg/mL | MIC values, C. albicans [2]: 0.03 µg/mL

C=C(c1ccccc1Cl)C(O)(Cn1cncn1)c1ccc(Cl)cc1 (stereo not drawn) [34 salt]
% Survival ([3]; 150 mg/kg per day, day 7): 100% | % Survival ([3]; 150 mg/kg per day, day 14): 100% | % Survival ([3]; 150 mg/kg per day, day 21): 100%

C=C(c1ccccc1Cl)C(O)(Cn1cncn1)c1ccc(F)cc1F (stereo not drawn) [35 HCl salt]
MIC values, A. fumigatus [1]: ≤ 0.2 µg/mL | MIC values, C. albicans [2]: 0.03 µg/mL

C=C(c1ccccc1Cl)C(O)(Cn1cncn1)c1ccc(F)cc1F (stereo not drawn) [35 salt]
% Survival ([3]; 150 mg/kg per day, day 7): 100% | % Survival ([3]; 150 mg/kg per day, day 14): 100% | % Survival ([3]; 150 mg/kg per day, day 21): 70%

C[C@@H]1[C@H](O)[C@@H](C)/C=C/C=C/C=C/C=C/C=C/C=C/C=C/[C@H](O[C@@H]2O[C@H](C)[C@@H](O)[C@H](N)[C@@H]2O)C[C@@H]2O[C@](O)(C[C@@H](O)C[C@@H](O)[C@H](O)CC[C@@H](O)C[C@@H](O)CC(=O)O[C@H]1C)C[C@H](O)[C@H]2C(=O)O [Amphotericin B, reference compound]
responders at 1 mg/kg/day ([3]; ATCC11651, 168 h): 100% | responders at 1 mg/kg/day ([3]; ATCC11651, 336 h): 100% | responders at 1 mg/kg/day ([3]; ATCC11651, 504 h): 100% | MIC [1, 11]: 1.4 ± 0.5 µg/mL (≈ 1.52 µM) | MIC [2, 12]: 0.33 ± 0.2 µg/mL (≈ 0.357 µM)

C=C(c1ccc(Cl)cc1)C(O)(Cn1cncn1)c1ccc(Cl)cc1Cl (stereo not drawn) [Example 26 HCl salt]
% Survival ([3]; 150 mg/kg per day, day 7): 100% | % Survival ([3]; 150 mg/kg per day, day 14, listed as 26 salt): 90% | % Survival ([3]; 150 mg/kg per day, day 21, listed as 26 salt): 80%

C=C(c1ccccc1)C(O)(Cn1cncn1)C(F)(F)C(F)(F)C(F)(F)C(F)(F)F (stereo not drawn) [Example 55]
responders at 150 mg/kg ([3]; ATCC11651, 168 h): 100% | responders at 150 mg/kg ([3]; ATCC11651, 336 h): 70% | responders at 150 mg/kg ([3]; ATCC11651, 504 h): 50%

C=C(c1ccc(Br)cc1)C(O)(Cn1cncn1)c1ccc(F)cc1 (stereo not drawn) [Example 85]
responders at 150 mg/kg [3, 6]: 100% | responders at 150 mg/kg [3, 7]: 80% | responders at 150 mg/kg [3, 8]: 70% | MIC [1, 9]: 12.5 µg/mL (≈ 32.2 µM) | MIC [2, 10]: ≤ 0.4 µg/mL

C=C(c1ccc(C(C)(C)C)cc1)C(O)(Cn1cncn1)c1ccc(F)cc1 (stereo not drawn) [Example 114]
responders at 150 mg/kg [3, 6]: 70% | responders at 150 mg/kg [3, 7]: 10% | responders at 150 mg/kg [3, 8]: 10% | MIC [1, 9]: 50 µg/mL (≈ 137 µM) | MIC [2, 10]: 0.4 µg/mL (≈ 1.09 µM)

C=C(c1ccc(C(C)(C)C)cc1)C(O)(Cn1cncn1)c1ccc(Cl)cc1 (stereo not drawn) [Example 117]
responders at 150 mg/kg [3, 6]: 60% | responders at 150 mg/kg [3, 7]: 0% | responders at 150 mg/kg [3, 8]: 0% | MIC [1, 9]: 100 µg/mL (≈ 262 µM) | MIC [2, 10]: 0.4 µg/mL (≈ 1.05 µM)

CC=C(c1ccccc1)C(O)(Cn1cncn1)c1ccc(F)cc1 (stereo not drawn) [Example 286]
responders at 150 mg/kg [3, 6]: 100% | responders at 150 mg/kg [3, 7]: 50% | responders at 150 mg/kg [3, 8]: 20% | MIC [1, 9]: 25 µg/mL (≈ 77.3 µM) | MIC [2, 10]: 0.4 µg/mL (≈ 1.24 µM)

C=C(CO)C(O)(Cn1cncn1)c1ccccc1 (stereo not drawn) [Example 448]
pest or weed control at 100 ppm (Plasmorpara viticola): 0% | pest or weed control at 100 ppm (Rhizoctonia solani): 42% | pest or weed control at 100 ppm (Puccinia recondita; 100 PPM): 16% | pest or weed control at 100 ppm (Phytophthora infestans): 0% | pest or weed control at 100 ppm (Botrytis cinerea): 54% | pest or weed control at 100 ppm ([4]; 100 PPM): 0% | pest or weed control at 100 ppm (Pyricularia oryzae): 0%

C=C(c1ccc(Cl)cc1)C(O)(Cn1cncn1)c1cccc(C(F)(F)F)c1 (stereo not drawn) [Example 685]
pest or weed control at 20 ppm (Rhizoctonia solani; 20 PPM): 15% | pest or weed control at 100 ppm (Rhizoctonia solani): 29% | pest or weed control at 20 ppm (Puccinia recondita; 20 PPM): 100% | responders at 150 mg/kg [3, 6]: 30% | responders at 150 mg/kg [3, 7]: 10% | responders at 150 mg/kg [3, 8]: 0% | pest or weed control at 20 ppm (Botrytis cinerea; 20 PPM): 28% | pest or weed control at 100 ppm (Botrytis cinerea): 0% | pest or weed control at 20 ppm ([4]; 20 PPM): 66% | MIC [1, 9]: 100 µg/mL (≈ 254 µM) | pest or weed control at 20 ppm [5]: 67% | pest or weed control at 100 ppm (Pyricularia oryzae): 0% | MIC [2, 10]: 0.8 µg/mL (≈ 2.03 µM) | pest or weed control at 20 ppm (Venturia inaequalis): 57%

C=C(c1ccc(F)cc1)C(O)(Cn1cncn1)c1ccncc1 (stereo not drawn) [Example 699]
MIC [1, 9]: 100 µg/mL (≈ 322 µM) | MIC [2, 10]: 50 µg/mL (≈ 161 µM)

C=C(c1cccc(C(F)(F)F)c1)C(O)(Cn1cncn1)c1ccc(F)cc1 (stereo not drawn) [Example 725]
responders at 150 mg/kg [3, 6]: 90% | responders at 150 mg/kg [3, 7]: 90% | responders at 150 mg/kg [3, 8]: 40%

C=C(c1ccc(F)cc1)C(O)(c1ccc(F)cc1)C(F)n1cncn1 (stereo not drawn) [Example 1258]
MIC [1, 9]: > 100 µg/mL | MIC [2, 10]: 1.6 µg/mL (≈ 4.63 µM)

C=C(c1ccc(F)cc1)C(O)(c1ccc(F)cc1)C(F)(F)n1cncn1 (stereo not drawn) [Example 1260]
MIC [1, 9]: > 100 µg/mL | MIC [2, 10]: 0.8 µg/mL (≈ 2.2 µM)

CC(=O)N1CCN(c2ccc(OCC3COC(Cn4ccnc4)(c4ccc(Cl)cc4Cl)O3)cc2)CC1 (stereo not drawn) [Ketoconazole, reference compound]
responders at 150 mg/kg [3, 6]: 100% | responders at 150 mg/kg [3, 7]: 80% | responders at 150 mg/kg [3, 8]: 50% | MIC [1, 9]: 11 ± 5 µg/mL (≈ 20.7 µM) | MIC [2, 10]: ≤ 0.1 µg/mL

Clc1ccc(COC(Cn2ccnc2)c2ccc(Cl)cc2Cl)c(Cl)c1 (stereo not drawn) [Miconazole, reference compound]
MIC [1, 11]: 1.3 µg/mL (≈ 3.12 µM) | MIC [2, 12]: ≤ 0.1 µg/mL

C[C@@H]1[C@H](O)[C@@H](C)/C=C/C=C/CC/C=C/C=C/C=C/C=C/C(O[C@H]2O[C@H](C)[C@@H](O)[C@H](N)[C@@H]2O)CC2O[C@](O)(CC(O)C(O)CCC(O)CC(O)CC(O)CC(=O)O[C@H]1C)CC(O)C2C(=O)O (stereo partly drawn) [Nystatin, reference compound]
MIC values, A. fumigatus [1]: 3.0 ± 1.0 µg/mL (≈ 3.24 µM) | MIC values, C. albicans [2]: 1.3 ± 0 µg/mL (≈ 1.4 µM)
